Assay results from paper PMC10464554 (Journal of Enzyme Inhibition and Medicinal Chemistry, 2023).

Key:
[1] = target: NT650-Nps5 (recombinant SARS-CoV-2 main protease Nsp5) (Severe acute respiratory syndrome coronavirus 2, UniProt P0DTD1); test: biochemical; type: binding
Nsp5 [2] = conditions: cited from earlier work
Nsp5 [3] = conditions: irreversible inhibitor of Nsp5; cited from earlier work
SARS-CoV-2 [4] = conditions: replication of SARS-CoV-2 in Vero E6 cells; cited from earlier work
SARS-CoV-2 [5] = conditions: Vero E6 cells, 72 h readout; cited from earlier work
SARS-CoV-2 BA.5 strain = type: cell-based
Vero E6 cells = conditions: 200–0.1 µM, 24 h, MTT

For `O=c1oc2c(O)c(O)cc3c(=O)oc4c(O)c(O)cc1c4c23` [Ellagic acid (7), ellagic acid], the Kd [1] is listed as 970 ± 140 nM, the “Binding Efficiency Index (BEI)” value ([1]; BEI = pKd/MW (kDa)) is listed as 19.9 and the “Dissociation constant (SPR)” value (Nsp5 [2]) is listed as “low micromolar”.

For `O=c1c(O)c(-c2cc(O)c(O)c(O)c2)oc2cc(O)cc(O)c12` [Myricetin (2), myricetin], the IC50 (Nsp5 [3]) is listed as 630 ± 10 nM, the EC50 (SARS-CoV-2 [4]) is listed as 8000 nM and the “Antiviral SARS-CoV-2 activity (CPE inhibition)” value (SARS-CoV-2 [5]) is listed as “devoid of antiviral SARS-CoV-2 activity”.

With `CC(C)(C)[C@H](NC(=O)C(F)(F)F)C(=O)N1C[C@H]2[C@@H]([C@H]1C(=O)N[C@H](C#N)C[C@@H]1CCNC1=O)C2(C)C` [Nirmatrelvir (1), Nirmatrelvir] the “Viral replication (supernatant viral titre)” value (SARS-CoV-2 BA.5 strain) was “significantly reduce the number of infective particles” and the “Cell viability (cytotoxic effect)” value (Vero E6 cells) was “well-tolerated by Vero E6 cells at all the concentrations tested”.
